Experimental data: patent US11840686B2, “Modulation of prekallikrein (PKK) expression” (Ionis Pharmaceuticals, Inc., priority 2013, dated 2023)
Strand notation (5' to 3'): a small letter for the sugar, then the base; units joined by * are phosphorothioate-linked, units joined directly phosphodiester-linked; [ ] holds rarer units or linkages, { } end groups; capitals alone tell only the bases. e = 2'-O-(2-methoxyethyl) (MOE); [5mC] = 5-methylcytosine; d = 2'-deoxy (DNA)

Columns and labels:
human PKK mRNA [1] = test: Antisense inhibition of human PKK mRNA in HepaRG cells, 5,000 nM (Example 2); format: cell-based
Method in brief: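 qRT-PCR (RTS3454) read-out, RIBOGREEN-normalized; % inhibition vs untreated cells. HepaRG, 20,000 cells/well, electroporation, 5,000 nM ASO, ~24 h.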

human PKK mRNA [2] = test: Dose-dependent antisense inhibition of human PKK in HepaRG cells, 0.19-5.00 uM (Example 5); format: cell-based; settings: for percent inhibition of PKK mRNA, 0.19 μM: 0.19 μM antisense oligonucleotide; for percent inhibition of PKK mRNA, 0.56 μM: 0.56 μM antisense oligonucleotide; for percent inhibition of PKK mRNA, 1.67 μM: 1.67 μM antisense oligonucleotide; for percent inhibition of PKK mRNA, 5.00 μM: 5.00 μM antisense oligonucleotide
Method: Cells were plated at a density of 20,000 cells per well and transfected using electroporation with 0.19 μM, 0.56 μM, 1.67 μM, and 5.00 μM concentrations of antisense oligonucleotide. After a treatment period of approximately 16 hours, RNA was isolated from the cells and PKK mRNA levels were measured by quantitative real-time PCR. Human PKK primer probe set RTS3454 was used to measure mRNA levels. PKK mRNA levels were adjusted according to total RNA content, as measured by RIBOGREEN®. The antisense oligonucleotides were tested in a series of experiments that had similar culture conditions.
The half maximal inhibitory concentration (IC50) of each oligonucleotide is also presented.

[3] = HepaRG cells, electroporation, approximately 16 hours, Table 39
[4] = 4 point dose response, HepaRG cells, Table 39
[5] = Table 8, HepaRG cells, electroporation with 5,000 nM antisense oligonucleotide, approx. 24 hours, PKK mRNA by RT-PCR (RTS3454), relative to untreated control cells
[6] = HepaRG cells, electroporation, approximately 16 hours, Table 35
[7] = 4 point dose response, HepaRG cells, Table 35
[8] = human PKK mRNA in HepaRG cells, 5-10-5 gapmers, Table 14
[9] = HepaRG cells, electroporation, approximately 16 hours, Table 37
[10] = 4 point dose response, HepaRG cells, Table 37
[11] = Table 34, HepaRG, electroporation, ~16 h
[12] = Table 7, HepaRG cells, electroporation with 5,000 nM antisense oligonucleotide, approx. 24 hours, PKK mRNA by RT-PCR (RTS3454), relative to untreated control cells
[13] = HepaRG cells, electroporation, approximately 16 hours, Table 36
[14] = 4 point dose response, HepaRG cells, Table 36
[15] = HepaRG cells, electroporation, approximately 16 hours, Table 38

Substance: 547633 (antisense eA*eT*e[5mC]*eA*e[5mC]*dT*dG*dT*d[5mC]*d[5mC]*dT*dA*dT*dA*dT*e[5mC]*eA*e[5mC]*eT*e[5mC]) [compound 547633]
- % inhibition (human PKK mRNA [1]; human PKK mRNA, HepaRG cells, 5-10-5 motif oligonucleotides targeting SEQ ID NO: 1 and 10): 87%
- percent inhibition of PKK at 0.19 μM (human PKK mRNA [2]; [3]): 12%
- percent inhibition of PKK at 0.56 μM (human PKK mRNA [2]; [3]): 46%
- percent inhibition of PKK at 1.67 μM (human PKK mRNA [2]; [3]): 78%
- IC50 (human PKK mRNA [2]; [4]): 0.7 µM

Substance: 546255 (e[5mC]*eT*eT*eT*eG*dT*dG*d[5mC]*dA*dA*dG*dT*d[5mC]*dT*d[5mC]*eT*eT*eG*eG*e[5mC]; antisense) [compound 546255]
- % inhibition (human PKK mRNA [1]; [5]): 92%
- percent inhibition of PKK at 0.19 μM (human PKK mRNA [2]; [6]): 32%
- percent inhibition of PKK at 0.56 μM (human PKK mRNA [2]; [6]): 35%
- percent inhibition of PKK at 1.67 μM (human PKK mRNA [2]; [6]): 78%
- percent inhibition of PKK at 5.00 μM (human PKK mRNA [2]; [6]): 87%
- IC50 (human PKK mRNA [2]; [7]): 0.5 µM
- percent inhibition of PKK mRNA, 0.19 μM (human PKK mRNA [2]; HepaRG cells): 5%
- percent inhibition of PKK mRNA, 0.56 μM (human PKK mRNA [2]; HepaRG cells): 39%
- percent inhibition of PKK mRNA, 1.67 μM (human PKK mRNA [2]; HepaRG cells): 82%
- percent inhibition of PKK mRNA, 5.00 μM (human PKK mRNA [2]; HepaRG cells): 96%
- IC50 (human PKK mRNA [2]; HepaRG cells, 0.19-5.00 μM): 0.8 µM

Substance: 547622 (antisense eG*eT*e[5mC]*eA*e[5mC]*dT*dG*dT*dA*d[5mC]*d[5mC]*dT*dA*dT*dA*eA*e[5mC]*eT*e[5mC]*eT) [compound 547622]
- % inhibition (human PKK mRNA [1]; [8]): 88%
- percent inhibition of PKK at 0.19 μM (human PKK mRNA [2]; [9]): 0%
- percent inhibition of PKK at 0.56 μM (human PKK mRNA [2]; [9]): 47%
- percent inhibition of PKK at 1.67 μM (human PKK mRNA [2]; [9]): 79%
- percent inhibition of PKK at 5.00 μM (human PKK mRNA [2]; [9]): 90%
- IC50 (human PKK mRNA [2]; [10]): 0.9 µM

Substance: 546188 (antisense e[5mC]*eT*e[5mC]*e[5mC]*eT*dT*dT*dA*dT*dA*dA*dA*dT*dG*dT*e[5mC]*eT*e[5mC]*eG*eA) [compound 546188]
- % inhibition (human PKK mRNA [1]; HepaRG cells, electroporation with 5,000 nM antisense oligonucleotide, approximately 24 hours, PKK mRNA by RT-PCR (RTS3454), relative to untreated control cells, Table 6 experiment): 95%
- percent inhibition of PKK at 5.00 μM (human PKK mRNA [2]; HepaRG cells, electroporation, approximately 16 hours, Table 41): 97%
- percent inhibition of PKK at 0.19 0μM (human PKK mRNA [2]; 0.19 0μM, HepaRG cells, electroporation, approximately 16 hours, Table 41): 27%
- percent inhibition of PKK at 0.56 0μM (human PKK mRNA [2]; 0.56 0μM, HepaRG cells, electroporation, approximately 16 hours, Table 41): 69%
- percent inhibition of PKK at 1.67 1μM (human PKK mRNA [2]; 1.67 1μM, HepaRG cells, electroporation, approximately 16 hours, Table 41): 88%
- IC50 (human PKK mRNA [2]; 4 point dose response, HepaRG cells, Table 41): 0.4 µM
- percent inhibition of PKK at 0.19 μM (human PKK mRNA [2]; [11]): 36%
- percent inhibition of PKK at 0.56 μM (human PKK mRNA [2]; [11]): 55%
- percent inhibition of PKK at 1.67 μM (human PKK mRNA [2]; [11]): 81%
- percent inhibition of PKK at 5.00 μM (human PKK mRNA [2]; [11]): 83%
- IC50 (human PKK mRNA [2]; Table 34, PKK mRNA, HepaRG, electroporation, ~16 h): 0.4 µM

Substance: 547373 (eG*e[5mC]*eA*eG*eA*dT*dG*dG*dT*d[5mC]*d[5mC]*dG*dA*d[5mC]*dA*e[5mC]*eA*e[5mC]*eA*eA; antisense) [compound 547373]
- % inhibition (human PKK mRNA [1]; [12]): 90%
- percent inhibition of PKK at 0.19 μM (human PKK mRNA [2]; [13]): 20%
- percent inhibition of PKK at 0.56 μM (human PKK mRNA [2]; [13]): 7%
- percent inhibition of PKK at 1.67 μM (human PKK mRNA [2]; [13]): 49%
- percent inhibition of PKK at 5.00 μM (human PKK mRNA [2]; [13]): 86%
- IC50 (human PKK mRNA [2]; [14]): 1.1 µM

Substance: 547426 (eG*eA*eG*eT*eA*dA*d[5mC]*d[5mC]*dA*dG*dA*dG*d[5mC]*dT*d[5mC]*e[5mC]*e[5mC]*eT*eT*eG; antisense) [compound 547426]
- % inhibition (human PKK mRNA [1]; [5]): 92%
- percent inhibition of PKK at 0.19 μM (human PKK mRNA [2]; [13]): 19%
- percent inhibition of PKK at 0.56 μM (human PKK mRNA [2]; [13]): 50%
- percent inhibition of PKK at 1.67 μM (human PKK mRNA [2]; [13]): 84%
- percent inhibition of PKK at 5.00 μM (human PKK mRNA [2]; [13]): 93%
- IC50 (human PKK mRNA [2]; [14]): 0.6 µM
- percent inhibition of PKK mRNA, 0.19 μM (human PKK mRNA [2]; HepaRG cells): 18%
- percent inhibition of PKK mRNA, 0.56 μM (human PKK mRNA [2]; HepaRG cells): 35%
- percent inhibition of PKK mRNA, 1.67 μM (human PKK mRNA [2]; HepaRG cells): 80%
- percent inhibition of PKK mRNA, 5.00 μM (human PKK mRNA [2]; HepaRG cells): 95%
- IC50 (human PKK mRNA [2]; HepaRG cells, 0.19-5.00 μM): 0.7 µM

Substance: 546916 (e[5mC]*eG*eT*e[5mC]*eA*d[5mC]*dT*dG*dT*dA*d[5mC]*d[5mC]*dT*dA*dT*eA*eA*e[5mC]*eT*eG; antisense) [compound 546916]
- % inhibition (human PKK mRNA [1]; HepaRG cells, 5,000 nM antisense oligonucleotide, 5-10-5 gapmers, Table 16): 92%
- percent inhibition of PKK at 0.19 μM (human PKK mRNA [2]; [6]): 43%
- percent inhibition of PKK at 0.56 μM (human PKK mRNA [2]; [6]): 71%
- percent inhibition of PKK at 1.67 μM (human PKK mRNA [2]; [6]): 79%
- percent inhibition of PKK at 5.00 μM (human PKK mRNA [2]; [6]): 89%
- IC50 (human PKK mRNA [2]; [7]): 0.2 µM
- percent inhibition of PKK mRNA, 0.19 μM (human PKK mRNA [2]; HepaRG cells): 0%
- percent inhibition of PKK mRNA, 0.56 μM (human PKK mRNA [2]; HepaRG cells): 27%
- percent inhibition of PKK mRNA, 1.67 μM (human PKK mRNA [2]; HepaRG cells): 73%
- percent inhibition of PKK mRNA, 5.00 μM (human PKK mRNA [2]; HepaRG cells): 97%
- IC50 (human PKK mRNA [2]; HepaRG cells, 0.19-5.00 μM): 1 µM

Substance: 547366 (eG*eG*eA*eG*eT*dG*dA*dG*dA*dA*d[5mC]*d[5mC]*d[5mC]*dT*dG*eG*e[5mC]*eA*eA*e[5mC]; antisense) [compound 547366]
- % inhibition (human PKK mRNA [1]; [12]): 86%
- percent inhibition of PKK at 0.19 μM (human PKK mRNA [2]; [3]): 0%
- percent inhibition of PKK at 0.56 μM (human PKK mRNA [2]; [3]): 45%
- percent inhibition of PKK at 1.67 μM (human PKK mRNA [2]; [3]): 68%
- percent inhibition of PKK at 5.00 μM (human PKK mRNA [2]; [3]): 91%
- IC50 (human PKK mRNA [2]; [4]): 1.2 µM

Substance: 546835 (eT*eA*eA*e[5mC]*eT*d[5mC]*dT*dA*dA*d[5mC]*dA*dG*dT*dA*dT*e[5mC]*eA*e[5mC]*eT*eG; antisense) [compound 546835]
- % inhibition (human PKK mRNA [1]; Table 13, human PKK mRNA in HepaRG cells, 5-10-5 gapmers): 86%
- percent inhibition of PKK at 0.19 μM (human PKK mRNA [2]; [3]): 9%
- percent inhibition of PKK at 0.56 μM (human PKK mRNA [2]; [3]): 35%
- percent inhibition of PKK at 1.67 μM (human PKK mRNA [2]; [3]): 68%
- percent inhibition of PKK at 5.00 μM (human PKK mRNA [2]; [3]): 93%
- IC50 (human PKK mRNA [2]; [4]): 0.9 µM

Substance: 547584 (eG*eT*eA*eT*e[5mC]*dA*d[5mC]*dT*dG*dT*d[5mC]*d[5mC]*dT*dA*dT*eA*eT*e[5mC]*eA*e[5mC]; antisense) [compound 547584]
- % inhibition (human PKK mRNA [1]; [8]): 85%
- percent inhibition of PKK at 0.19 μM (human PKK mRNA [2]; [15]): 26%
- percent inhibition of PKK at 0.56 μM (human PKK mRNA [2]; [15]): 34%
- percent inhibition of PKK at 1.67 μM (human PKK mRNA [2]; [15]): 76%
- percent inhibition of PKK at 5.00 μM (human PKK mRNA [2]; [15]): 86%
- IC50 (human PKK mRNA [2]; 4 point dose response, HepaRG cells, Table 38): 0.7 µM
- percent inhibition of PKK mRNA, 0.19 μM (human PKK mRNA [2]; HepaRG cells): 0%
- percent inhibition of PKK mRNA, 0.56 μM (human PKK mRNA [2]; HepaRG cells): 21%
- percent inhibition of PKK mRNA, 1.67 μM (human PKK mRNA [2]; HepaRG cells): 64%
- percent inhibition of PKK mRNA, 5.00 μM (human PKK mRNA [2]; HepaRG cells): 92%
- IC50 (human PKK mRNA [2]; HepaRG cells, 0.19-5.00 μM): 1.3 µM

Substance: 547618 (antisense eA*e[5mC]*eT*eG*eT*d[5mC]*d[5mC]*dT*dA*dT*dA*dT*d[5mC]*dA*d[5mC]*eT*eG*eT*eA*e[5mC]) [compound 547618]
- % inhibition (human PKK mRNA [1]; [8]): 87%
- percent inhibition of PKK at 0.19 μM (human PKK mRNA [2]; [9]): 0%
- percent inhibition of PKK at 0.56 μM (human PKK mRNA [2]; [9]): 0%
- percent inhibition of PKK at 1.67 μM (human PKK mRNA [2]; [9]): 73%
- percent inhibition of PKK at 5.00 μM (human PKK mRNA [2]; [9]): 98%
- IC50 (human PKK mRNA [2]; [10]): 1.3 µM
